# Data from patent US6914045B2, “Glycopeptide antibiotics” (Wyeth Holdings Corporation, priority 2001, dated 2005).
# Numbered stars: 1 amine (or outer) side, 2 acyl side, 3 side chain; on linkers, the order of the positions; unused ones are H or OH. Square brackets hold non-standard residues; d marks the D form. Peptide text beside a SMILES is read from it. ξ: configuration not given here. X1 = N=C1NCC(C(O)C(N[*:1])C(=O)[*:2])N1C1OC(CO)C(O)C(O)C1O; ξEnduracididine(βξ-OH,4'ξ) = N=C1NCC(C(O)C(N)C(=O)O)N1; Cha = N[CH](CC1CCCCC1)C(=O)O
# Assays:
# Escherichia coli = test: in vitro antibacterial evaluation, MIC by broth dilution; assay type: cell-based; conditions: 18 hours at 35° C.
# How it was run: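 Broth dilution in Muller-Hinton II medium per NCCLS standard M7-A2, with an inoculum of 5×10^5 CFU/mL and antibiotic tested over 64-0.06 μg/mL. MIC was taken as the lowest concentration inhibiting visible growth.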
# Enterococcus sp. = test: as above; assay type: cell-based
# How it was run: (§1)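 Broth dilution per NCCLS standard M7-A2 in Muller-Hinton II […], with an inoculum of 5×10^5 CFU/mL and antibiotic spanning 64-0.06 μg/mL. The MIC is the lowest concentration that inhibits growth of the organism.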
# Streptococcus sp. = test: as above; assay type: cell-based
# How it was run: as §1
# Staphylococcus sp. = test: as above; assay type: cell-based; conditions: broth dilution, 18 hours at 35° C.; for MIC Staphylococcus aureus (ATCC 29213): strain ATCC 29213; for MIC Staphylococcus aureus (GC 1131): strain GC 1131; for MIC Staphylococcus aureus (GC 3051): strain GC 3051; for MIC Staphylococcus aureus (GC 3053): strain GC 3053; for MIC Staphylococcus aureus (GC 4541): strain GC 4541; for MIC Staphylococcus aureus (GC 4542): strain GC 4542; for MIC Staphylococcus aureus-SMITH (GC 4543): strain GC 4543; for MIC Staphylococcus aureus (GC 4544): strain GC 4544; for MIC Staphylococcus aureus (GC 4545): strain GC 4545; for MIC Staphylococcus haemolyticus (GC 4546): strain GC 4546; for MIC Coagulase Negative Staphylococcus (GC 4547): strain GC 4547; for MIC Coagulase Negative Staphylococcus (GC 4548): strain GC 4548; for MIC Coagulase Negative Staphylococcus (GC 4549): strain GC 4549; for MIC Coagulase Negative Staphylococcus (GC 4551): strain GC 4551
# How it was run: as §1
# [1] = clinical pathology (serum clinical chemistry) in mice; assay type: in vivo; conditions: CD-1 mice, 20 mg/kg intravenously daily for 9 days, sera day 10
# Method: 20-day-old CD-1 mice were divided into a vehicle control group (5 mice) and a treatment group (5 mice). Samples of glycopeptide antibiotics were administered at 20 mg/kg intravenously daily for 9 days.
# [2] = anatomic pathology (histopathology of heart and kidney) in mice; assay type: in vivo; conditions: CD-1 mice, 20 mg/kg intravenously daily for 9 days, necropsy day 10, microscopic histopathology
# Method: Samples of tissues from necropsied mice were formalin-fixed, paraffin-embedded, sectioned, stained with hematoxylin and eosin, and examined microscopically. Histopathologic findings were recorded. These findings were subjectively graded on a scale corresponding to slight, mild, moderate, marked and severe as compared to untreated controls.
# [3] = broth dilution, 18 hours at 35° C.
smiles,measurement,setting,value
"N=C1NCC(C(O)C2NC(=O)C(CC3CCCCC3)NC(=O)C(CC3CCCCC3)NC(=O)CNC(=O)C(CO)NC(=O)C(C(O)C3CNC(=N)N3C3OC(CO)C(O)C(O)C3O)NC2=O)N1 (stereo not drawn) [Example 52, Cyclo[3-cyclohexylalanyl-3-cyclohexylalanyl-3-(2-iminoimidazolidin-4-yl)seryl-3-(3-hexopyranosyl-2-iminoimidazolidin-4-yl)serylserylglycyl]] (cyclo(G[Cha][Cha][ξEnduracididine(βξ-OH,4'ξ)][X1]S); configuration not given here)",MIC Escherichia coli (ATCC 25922),"Escherichia coli; strain ATCC 25922, broth dilution",64 µg/mL
same,MIC Escherichia coli (GC 4559),"Escherichia coli; strain GC 4559, broth dilution",64 µg/mL
same,MIC Escherichia coli (GC 4560),"Escherichia coli; strain GC 4560, broth dilution",16 µg/mL
same,MIC Enterococcus faecalis (ATCC 29212),"Enterococcus sp.; strain ATCC 29212; broth dilution, 18 hours at 35° C.",64 µg/mL
same,MIC Enterococcus faecalis (GC 2242),"Enterococcus sp.; strain GC 2242; broth dilution, 18 hours at 35° C.",32 µg/mL
same,MIC Enterococcus faecium (GC 2243),"Enterococcus sp.; strain GC 2243; broth dilution, 18 hours at 35° C.",16 µg/mL
same,MIC Enterococcus faecalis (GC 2691),"Enterococcus sp.; strain GC 2691; broth dilution, 18 hours at 35° C.",32 µg/mL
same,MIC Enterococcus faecalis (GC 3059),"Enterococcus sp.; strain GC 3059; broth dilution, 18 hours at 35° C.",32 µg/mL
same,MIC Enterococcus faecalis (GC 4552),"Enterococcus sp.; strain GC 4552; broth dilution, 18 hours at 35° C.",32 µg/mL
same,MIC Enterococcus faecalis (GC 4553),"Enterococcus sp.; strain GC 4553; broth dilution, 18 hours at 35° C.",16 µg/mL
same,MIC Enterococcus faecalis (GC 4554),"Enterococcus sp.; strain GC 4554; broth dilution, 18 hours at 35° C.",64 µg/mL
same,MIC Enterococcus faecium (GC 4556),"Enterococcus sp.; strain GC 4556; broth dilution, 18 hours at 35° C.",32 µg/mL
same,MIC Enterococcus faecium (GC 4557),"Enterococcus sp.; strain GC 4557; broth dilution, 18 hours at 35° C.",8 µg/mL
same,MIC Enterococcus avium (GC 4558),"Enterococcus sp.; strain GC 4558; broth dilution, 18 hours at 35° C.",32 µg/mL
same,MIC Enterococcus faecalis (GC 6189),"Enterococcus sp.; strain GC 6189; broth dilution, 18 hours at 35° C.",32 µg/mL
same,MIC Streptococcus pneumoniae (ATCC 6301),"Streptococcus sp.; strain ATCC 6301; broth dilution, 18 hours at 35° C.",8 µg/mL
same,MIC Streptococcus pneumoniae (GC 1894),"Streptococcus sp.; strain GC 1894; broth dilution, 18 hours at 35° C.",8 µg/mL
same,MIC Streptococcus pyogenes (GC 4563),"Streptococcus sp.; strain GC 4563; broth dilution, 18 hours at 35° C.",8 µg/mL
same,MIC Streptococcus agalactiae (GC 4564),"Streptococcus sp.; strain GC 4564; broth dilution, 18 hours at 35° C.",8 µg/mL
same,MIC Streptococcus pneumoniae (GC 4565),"Streptococcus sp.; strain GC 4565; broth dilution, 18 hours at 35° C.",16 µg/mL
same,MIC Staphylococcus aureus (ATCC 29213),Staphylococcus sp.,16 µg/mL
same,MIC Staphylococcus aureus (GC 1131),Staphylococcus sp.,16 µg/mL
same,MIC Staphylococcus aureus (GC 3051),Staphylococcus sp.,16 µg/mL
same,MIC Staphylococcus aureus (GC 3053),Staphylococcus sp.,32 µg/mL
same,MIC Staphylococcus aureus (GC 4541),Staphylococcus sp.,16 µg/mL
same,MIC Staphylococcus aureus (GC 4542),Staphylococcus sp.,8 µg/mL
same,MIC Staphylococcus aureus-SMITH (GC 4543),Staphylococcus sp.,16 µg/mL
same,MIC Staphylococcus aureus (GC 4544),Staphylococcus sp.,16 µg/mL
same,MIC Staphylococcus aureus (GC 4545),Staphylococcus sp.,8 µg/mL
same,MIC Staphylococcus haemolyticus (GC 4546),Staphylococcus sp.,4 µg/mL
same,MIC Coagulase Negative Staphylococcus (GC 4547),Staphylococcus sp.,8 µg/mL
same,MIC Coagulase Negative Staphylococcus (GC 4548),Staphylococcus sp.,8 µg/mL
same,MIC Coagulase Negative Staphylococcus (GC 4549),Staphylococcus sp.,4 µg/mL
same,MIC Coagulase Negative Staphylococcus (GC 4551),Staphylococcus sp.,8 µg/mL
same,"Clinical Chemistry (Day 10) % of Control, BUN",[1],211%
same,"Anatomical Pathology (Day 10), Heart",[2],0
same,"Anatomical Pathology (Day 10), Kidney",[2],+++
"CC(c1ccccc1)C1NC(=O)CNC(=O)C(CO)NC(=O)C(C(O)C2CN(CCCCCCCCCCCCO)C(=N)N2C2OC(CO)C(O)C(O)C2O)NC(=O)C(C(O)C2CNC(=N)N2)NC(=O)C(Cc2ccc(OC3OC(CO)C(OC4OC(CO)C(O)C(O)C4O)C(O)C3O)cc2)NC1=O (stereo not drawn) [Example 61, Cyclo[glycyl-β-methylphenylalanyl-O-(4-O-hexopyranosylhexopyranosyl)tyrosl-3-(2-iminoimidazolidin-4-yl)seryl-3-[3-hexopyranosyl-1-(12-hydroxydodecyl)-2-iminoimidazolidin-4-yl]-serylseryl]]",MIC Escherichia coli (ATCC 25922),Escherichia coli,128 µg/mL
same,MIC Escherichia coli (GC 4559),Escherichia coli,128 µg/mL
same,MIC Escherichia coli (GC 4560),Escherichia coli,8 µg/mL
same,MIC Enterococcus avium (GC 4558),"Enterococcus sp.; Enterococcus avium (GC 4558); broth dilution, 18 hours at 35° C.",64 µg/mL
same,MIC Enterococcus faecalis (ATCC 29212),"Enterococcus sp.; Enterococcus faecalis (ATCC 29212); broth dilution, 18 hours at 35° C.",128 µg/mL
same,MIC Enterococcus faecalis (GC 4552),"Enterococcus sp.; Enterococcus faecalis (GC 4552); broth dilution, 18 hours at 35° C.",128 µg/mL
same,MIC Enterococcus faecalis (GC 4553),"Enterococcus sp.; Enterococcus faecalis (GC 4553); broth dilution, 18 hours at 35° C.",128 µg/mL
same,MIC Enterococcus faecalis (GC 4554),"Enterococcus sp.; Enterococcus faecalis (GC 4554); broth dilution, 18 hours at 35° C.",128 µg/mL
same,MIC Enterococcus faecalis (GC 6189),"Enterococcus sp.; Enterococcus faecalis (GC 6189); broth dilution, 18 hours at 35° C.",128 µg/mL
same,MIC Enterococcus faecium (GC 2243),"Enterococcus sp.; Enterococcus faecium (GC 2243); broth dilution, 18 hours at 35° C.",>128 µg/mL
same,MIC Enterococcus faecium (GC 4556),"Enterococcus sp.; Enterococcus faecium (GC 4556); broth dilution, 18 hours at 35° C.",128 µg/mL
same,MIC Enterococcus faecium (GC 4557),"Enterococcus sp.; Enterococcus faecium (GC 4557); broth dilution, 18 hours at 35° C.",128 µg/mL
same,MIC Enterococcus avium (GC 4558),Enterococcus sp.; [3],64 µg/mL
same,MIC Enterococcus faecalis (ATCC 29212),Enterococcus sp.; [3],128 µg/mL
same,MIC Enterococcus faecalis (GC 2242),Enterococcus sp.; [3],128 µg/mL
same,MIC Enterococcus faecalis (GC 2691),Enterococcus sp.; [3],128 µg/mL
same,MIC Enterococcus faecalis (GC 3059),Enterococcus sp.; [3],128 µg/mL
same,MIC Enterococcus faecalis (GC 4552),Enterococcus sp.; [3],128 µg/mL
same,MIC Enterococcus faecalis (GC 4553),Enterococcus sp.; [3],128 µg/mL
same,MIC Enterococcus faecalis (GC 4554),Enterococcus sp.; [3],128 µg/mL
same,MIC Enterococcus faecalis (GC 6189),Enterococcus sp.; [3],128 µg/mL
same,MIC Enterococcus faecium (GC 2243),Enterococcus sp.; [3],>128 µg/mL
same,MIC Enterococcus faecium (GC 4556),Enterococcus sp.; [3],128 µg/mL
same,MIC Enterococcus faecium (GC 4557),Enterococcus sp.; [3],128 µg/mL
same,MIC Enterococcus faecalis (GC 2242),"Enterococcus sp.; broth dilution, 18 hours at 35° C.; strain GC 2242",128 µg/mL
same,MIC Enterococcus faecalis (GC 2691),"Enterococcus sp.; broth dilution, 18 hours at 35° C.; strain GC 2691",128 µg/mL
same,MIC Enterococcus faecalis (GC 3059),"Enterococcus sp.; broth dilution, 18 hours at 35° C.; strain GC 3059",128 µg/mL
same,MIC Streptococcus agalactiae (GC 4564),Streptococcus sp.; [3],128 µg/mL
same,MIC Streptococcus pneumoniae (ATCC 6301),Streptococcus sp.; [3],128 µg/mL
same,MIC Streptococcus pneumoniae (GC 1894),Streptococcus sp.; [3],64 µg/mL
same,MIC Streptococcus pneumoniae (GC 4565),Streptococcus sp.; [3],64 µg/mL
same,MIC Streptococcus pyogenes (GC 4563),Streptococcus sp.; [3],128 µg/mL
same,MIC Streptococcus pneumoniae (ATCC 6301),"Streptococcus sp.; broth dilution, 18 hours at 35° C.; strain ATCC 6301",128 µg/mL
same,MIC Streptococcus pneumoniae (GC 1894),"Streptococcus sp.; broth dilution, 18 hours at 35° C.; strain GC 1894",64 µg/mL
same,MIC Streptococcus pyogenes (GC 4563),"Streptococcus sp.; broth dilution, 18 hours at 35° C.; strain GC 4563",128 µg/mL
same,MIC Streptococcus agalactiae (GC 4564),"Streptococcus sp.; broth dilution, 18 hours at 35° C.; strain GC 4564",128 µg/mL
same,MIC Streptococcus pneumoniae (GC 4565),"Streptococcus sp.; broth dilution, 18 hours at 35° C.; strain GC 4565",64 µg/mL
same,MIC Staphylococcus aureus (ATCC 29213),Staphylococcus sp.,>128 µg/mL
same,MIC Staphylococcus aureus (GC 1131),Staphylococcus sp.,>128 µg/mL
same,MIC Staphylococcus aureus (GC 3051),Staphylococcus sp.,>128 µg/mL
same,MIC Staphylococcus aureus (GC 3053),Staphylococcus sp.,128 µg/mL
same,MIC Staphylococcus aureus (GC 4541),Staphylococcus sp.,>128 µg/mL
same,MIC Staphylococcus aureus (GC 4542),Staphylococcus sp.,>128 µg/mL
same,MIC Staphylococcus aureus-SMITH (GC 4543),Staphylococcus sp.,>128 µg/mL
same,MIC Staphylococcus aureus (GC 4544),Staphylococcus sp.,>128 µg/mL
same,MIC Staphylococcus aureus (GC 4545),Staphylococcus sp.,>128 µg/mL
same,MIC Staphylococcus haemolyticus (GC 4546),Staphylococcus sp.,>128 µg/mL
same,MIC Coagulase Negative Staphylococcus (GC 4547),Staphylococcus sp.,128 µg/mL
same,MIC Coagulase Negative Staphylococcus (GC 4548),Staphylococcus sp.,>128 µg/mL
same,MIC Coagulase Negative Staphylococcus (GC 4549),Staphylococcus sp.,128 µg/mL
same,MIC Coagulase Negative Staphylococcus (GC 4551),Staphylococcus sp.,>128 µg/mL
same,MIC Coagulase Negative Staphylococcus (GC 6257),Staphylococcus sp.; strain GC 6257,>128 µg/mL
same,"Clinical Chemistry (Day 10) % of Control, BUN",[1],+157%
same,"Clinical Chemistry (Day 10) % of Control, Creatinine",[1],+122%
same,"Anatomical Pathology (Day 10), Heart",[2],0
same,"Anatomical Pathology (Day 10), Kidney",[2],+++
